The assay addresses T1, Human AMPK α2β2γ1 (Homo sapiens, UniProt O43741+P54646).
T1 construct: The full length cDNAs of human AMPK β2 (NM_005399.3) and human AMPK α2 (NM_006252.3); The full length cDNAs of human AMPK β2 (NM_005399.3); the full length cDNA of human AMPK γ1 (NM_002733.3) had been inserted into pET28b(+); 6×His (N); made in house; host or cells: Escherichia coli BL21 CodonPlus (DE3)-RIL
The experiment in a line: Test Example 2: activation of phosphorylated human AMPK α2β2γ1 (mobility-shift kinase assay, FL-Peptide 7). Type of assay: biochemical. As to conditions: for EC150: compound concentration showing 150% relative to the control (100%), human AMPK α2β2γ1 phosphorylated with CaMKK2; for Emax: maximum rate of increase in activity within the measurement range, control = 100%, read-out: Emax. The gist of the method:
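His-tagged α2β2γ1 expressed in E. coli was pre-phosphorylated by GST-CaMKKβ (25 °C, 1–1.5 h), then exposed to compound for 10 min (1% DMSO). Reaction: pH 7.0 HEPES, ATP and 1.5 μM FL-Peptide 7 (final), 2 h at 25 °C. Mobility-shift conversion gave % activity increase versus compound-free control.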

T1 sequence (P54646 whole entry): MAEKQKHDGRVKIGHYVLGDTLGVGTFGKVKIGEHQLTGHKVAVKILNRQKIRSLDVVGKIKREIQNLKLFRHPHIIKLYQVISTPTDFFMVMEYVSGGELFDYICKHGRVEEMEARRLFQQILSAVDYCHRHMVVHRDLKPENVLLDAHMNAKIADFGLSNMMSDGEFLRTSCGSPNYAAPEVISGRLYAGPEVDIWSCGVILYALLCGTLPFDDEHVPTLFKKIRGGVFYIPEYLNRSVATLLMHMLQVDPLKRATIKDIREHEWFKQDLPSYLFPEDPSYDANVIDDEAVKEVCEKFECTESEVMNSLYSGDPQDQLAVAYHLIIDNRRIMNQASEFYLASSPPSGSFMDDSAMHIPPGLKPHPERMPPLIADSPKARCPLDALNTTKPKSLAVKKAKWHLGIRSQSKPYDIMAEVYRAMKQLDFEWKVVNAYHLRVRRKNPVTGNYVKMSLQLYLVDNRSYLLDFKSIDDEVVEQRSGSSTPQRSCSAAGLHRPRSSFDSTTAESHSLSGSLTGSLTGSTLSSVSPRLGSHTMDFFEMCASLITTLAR
T1 sequence (O43741 whole entry): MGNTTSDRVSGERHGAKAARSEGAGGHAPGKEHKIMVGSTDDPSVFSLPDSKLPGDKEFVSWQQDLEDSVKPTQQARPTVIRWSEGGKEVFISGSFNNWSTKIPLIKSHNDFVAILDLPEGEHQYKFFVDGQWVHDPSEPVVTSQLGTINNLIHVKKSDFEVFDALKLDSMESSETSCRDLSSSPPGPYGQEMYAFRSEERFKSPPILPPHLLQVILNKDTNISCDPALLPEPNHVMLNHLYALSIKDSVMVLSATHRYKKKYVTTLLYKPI
T1 sequence (P54619 whole entry partner): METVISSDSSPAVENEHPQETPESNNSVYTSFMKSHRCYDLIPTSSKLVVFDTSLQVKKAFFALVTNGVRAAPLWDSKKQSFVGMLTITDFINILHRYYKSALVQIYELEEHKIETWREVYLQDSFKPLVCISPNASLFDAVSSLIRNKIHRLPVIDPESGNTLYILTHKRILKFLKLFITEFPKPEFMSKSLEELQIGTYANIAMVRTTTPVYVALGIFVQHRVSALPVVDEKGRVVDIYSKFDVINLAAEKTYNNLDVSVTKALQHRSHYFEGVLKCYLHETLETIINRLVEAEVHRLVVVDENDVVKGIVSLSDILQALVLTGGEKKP

The Emax is the maximal effect, on the per cent scale that the assay sets. `COCCNC(=O)c1ccc(-c2ccc(-c3nc4cc(O[C@@H]5CO[C@H](CO)C5)[nH]c4cc3F)cc2)cc1` [Compound I-2-82]: the EC150 is 0.5 nM and the Emax was found to be 591%.
In the same order, the values of `OCC1(c2ccc(-c3nc4cc(O[C@@H]5CO[C@H]6[C@@H]5OC[C@H]6O)[nH]c4cc3F)cc2)CC1` [Compound I-2-66] are 1.1 nM and 580%.
Regarding `CNC(=O)Nc1ccc(-c2ccc(-c3nc4cc(O[C@@H]5CO[C@H]6[C@@H]5OC[C@H]6O)[nH]c4cc3F)cc2)cc1` [Compound I-1-08], the EC150 turned out to be 4.7 nM and the maximum response (Emax) stood at 444%.
With `CC(=O)NC1CCN(c2ccc(-c3nc4cc(O[C@@H]5CO[C@H]6[C@@H]5OC[C@H]6O)[nH]c4cc3F)cc2)CC1` [Compound I-1-31], the EC150 came to 9.5 nM and the Emax turned out to be 539%.
For `O[C@@H]1CO[C@H]2[C@@H]1OC[C@H]2Oc1cc2nc(-c3ccc(-c4ccc(OC5CNC5)cc4)cc3)c(F)cc2[nH]1` [Compound I-1-63] the same measures were 3.2 nM and 361%.
As to `COCC[S+]([O-])c1ccc(-c2ccc(-c3nc4cc(O[C@@H]5CO[C@H]6[C@@H]5OC[C@H]6O)[nH]c4cc3F)cc2)cc1` (some centres unmarked) [Compound I-2-93], the EC150 was 1.1 nM and the Emax came out at 652%.
For `O[C@@H]1CO[C@H]2[C@@H]1OC[C@H]2Oc1cc2nc(-c3ccc(-c4ccc(OC5COC5)cc4)cc3)c(F)cc2[nH]1` [Compound I-1-28] the same measures were 15 nM and 596%.
In the same order, the values of `O[C@@H]1CO[C@H]2[C@@H]1OC[C@H]2Oc1cc2nc(-c3ccc(-c4ccc(OC5CNOC5)cc4)cc3)c(F)cc2[nH]1` (some centres unmarked) [Compound I-2-27] are 3.7 nM and 375%.
In the same order, the values of `C[S@@](=O)(=Nc1ccc(-c2ccc(-c3nc4cc(O[C@@H]5CO[C@H]6[C@@H]5OC[C@H]6O)[nH]c4cc3F)cc2)cc1)c1ccccc1` [Compound I-1-19] are 5.8 nM and 477%.
As to `C[S@](=O)(=Nc1ccc(-c2ccc(-c3nc4cc(O[C@@H]5CO[C@H]6[C@@H]5OC[C@H]6O)[nH]c4cc3F)cc2)cc1)c1ccccc1` [Compound I-1-18], the EC150 is 19 nM and the maximal response (Emax) came out at 415%.
In the same order, the values of `O=C(c1ccc(-c2ccc(-c3nc4cc(O[C@@H]5CO[C@H](CO)C5)[nH]c4cc3F)cc2)cc1)N1CCCC1` [Compound I-2-49] are 0.88 nM and 684%.
For `COCCCN1CCN(c2ccc(-c3nc4cc(O[C@@H]5CO[C@H]6[C@@H]5OC[C@H]6O)[nH]c4cc3F)cc2)CC1` [Compound I-2-58] the same measures were 56 nM and 514%.
For `CO[C@H]1[C@@H](CO)OC[C@H]1Oc1cc2nc(-c3ccc(-c4ccc(N=S(C)(C)=O)cc4)cc3)c(F)cc2[nH]1` [Compound I-2-26] the same measures were 8.6 nM and 298%.
Take `CNS(C)(=O)=Nc1ccc(-c2ccc(-c3nc4cc(O[C@@H]5CO[C@H]6[C@@H]5OC[C@H]6O)[nH]c4cc3F)cc2)cc1` (some centres unmarked) [Compound I-2-04]: the EC150 is given as 0.67 nM and the Emax was 638%.
Consider `COC(=O)NC1CC=C(c2ccc(-c3nc4cc(O[C@@H]5CO[C@H](CO)C5)[nH]c4cc3F)cc2)CC1` (some centres unmarked) [Compound I-2-01], for which the maximal response (Emax) came out at 376%.
Turning to `O[C@@H]1CO[C@H]2[C@@H]1OC[C@H]2Oc1cc2nc(-c3ccc(N4CCC(OC5CCNCC5)CC4)cc3)c(F)cc2[nH]1` [Compound I-2-62], the EC150 is 47 nM and the Emax is 514%.
As to `CNC(=O)OC1CCN(c2ccc(-c3nc4cc(O[C@@H]5CO[C@H]6[C@@H]5OC[C@H]6O)[nH]c4cc3F)cc2)CC1` [Compound I-1-49], the EC150 is given as 19 nM and the maximal effect (Emax) came to 551%.
In the same order, the values of `O[C@@H]1CO[C@H]2[C@@H]1OC[C@H]2Oc1cc2nc(-c3ccc(-c4ccc(CN5CCOCC5)cc4)cc3)c(F)cc2[nH]1` [Compound I-2-22] are 5.9 nM and 348%.
For `COC(=O)N1CCN(c2ccc(-c3nc4cc(O[C@@H]5CO[C@H]6[C@@H]5OC[C@H]6O)[nH]c4cc3F)cc2)CC1` [Compound I-1-57] the same measures were 32 nM and 550%.
In the same order, the values of `OC1CCN(c2ccc(-c3ccc(-c4nc5cc(O[C@@H]6CO[C@H]7[C@@H]6OC[C@H]7O)[nH]c5cc4F)cc3)cc2)C1` (some centres unmarked) [Compound I-1-59] are 2.9 nM and 470%.
On to `OCCSc1ccc(-c2ccc(-c3nc4cc(O[C@@H]5CO[C@H]6[C@@H]5OC[C@H]6O)[nH]c4cc3F)cc2)cc1` [Compound I-2-16], for which the EC150 is recorded as 1.8 nM and the maximal effect (Emax) turned out to be 623%.
`COCCOc1ccc(-c2ccc(-c3nc4cc(O[C@@H]5CO[C@H]6[C@@H]5OC[C@H]6O)[nH]c4cc3F)cc2)nc1` [Compound I-2-52]: the EC150 came out at 7.2 nM and the maximal effect (Emax) is 532%.
In the case of `OCCOc1ccc(-c2ccc(-c3nc4cc(O[C@@H]5CO[C@H]6[C@@H]5OC[C@H]6O)[nH]c4cc3F)cc2)cc1` [Compound I-1-72], the EC150 is 3 nM and the maximum response (Emax) turned out to be 353%.
In the same order, the values of `CS(=O)(=O)NC1CC=C(c2ccc(-c3nc4cc(O[C@@H]5CO[C@H]6[C@@H]5OC[C@H]6O)[nH]c4cc3F)cc2)CC1` (some centres unmarked) [Compound I-1-17] are 3.4 nM and 483%.
`C[S+]([O-])c1ccc(-c2ccc(-c3nc4cc(O[C@@H]5CO[C@H]6[C@@H]5OC[C@H]6O)[nH]c4cc3F)cc2)cc1` (single isomer, unassigned) [Compound I-2-08]: the EC150 is reported as 1.6 nM and the Emax worked out at 598%.
In the same order, the values of `CC(C)(O)/C=C/c1ccc(-c2nc3cc(O[C@@H]4CO[C@H]5[C@@H]4OC[C@H]5O)[nH]c3cc2F)cc1` [Compound I-2-14] are 9.9 nM and 507%.
For `COC(=O)N1CCC(Oc2ccc(-c3ccc(-c4nc5cc(O[C@@H]6CO[C@H]7[C@@H]6OC[C@H]7O)[nH]c5cc4F)cc3)cc2)C1` (some centres unmarked) [Compound I-2-51] the same measures were 9.7 nM and 590%.
In the same order, the values of `O[C@@H]1CO[C@H]2[C@@H]1OC[C@H]2Oc1cc2nc(-c3ccc(-c4ccc(N5CCOCC5)cc4)cc3)c(F)cc2[nH]1` [Compound I-2-20] are 2.3 nM and 375%.
As to `CCOC(=O)N[C@H]1CC[C@H](c2ccc(-c3nc4cc(O[C@@H]5CO[C@H]6[C@@H]5OC[C@H]6O)[nH]c4cc3F)cc2)CC1` [Compound I-1-14], the EC150 was found to be 24 nM and the Emax is 513%.
In the same order, the values of `CS(C)(=O)=Nc1ccc(-c2ccc(-c3nc4cc(O[C@@H]5CO[C@H](CO)[C@H]5F)[nH]c4cc3F)cc2)cc1` [Compound I-2-42] are 2.6 nM and 647%.

For the origin of these results see US10478425B2, “5-phenylazaindole derivative having AMPK-activating activity” (Shionogi & Co., Ltd., priority 2016, dated 2019).
